Positions of bridges follow the written chain, without caps; N, C: chain ends. Non-standard residues stand in square brackets, D forms with d. Residues, ends and D or L forms follow the SMILES beside them. Trp(6-Cl) = N[C@@H](Cc1c[nH]c2cc(Cl)ccc12)C(=O)O; Phe(3,4-Cl2) = N[C@@H](Cc1ccc(Cl)c(Cl)c1)C(=O)O; 2Nal = N[C@@H](Cc1ccc2ccccc2c1)C(=O)O
Each molecule was assayed against human TSP1 (Homo sapiens, UniProt P07996) (assay: Cell adhesion inhibition assay (HUVEC adhesion to TSP1-coated plate)). Conditions: HUVEC adhesion to human platelet thrombospondin-coated plate, 2.5 hours, CellTiter-Glo; read-out: Cell adhesion IC50.
Sequence of human TSP1 (P07996 19-1170 limits assumed): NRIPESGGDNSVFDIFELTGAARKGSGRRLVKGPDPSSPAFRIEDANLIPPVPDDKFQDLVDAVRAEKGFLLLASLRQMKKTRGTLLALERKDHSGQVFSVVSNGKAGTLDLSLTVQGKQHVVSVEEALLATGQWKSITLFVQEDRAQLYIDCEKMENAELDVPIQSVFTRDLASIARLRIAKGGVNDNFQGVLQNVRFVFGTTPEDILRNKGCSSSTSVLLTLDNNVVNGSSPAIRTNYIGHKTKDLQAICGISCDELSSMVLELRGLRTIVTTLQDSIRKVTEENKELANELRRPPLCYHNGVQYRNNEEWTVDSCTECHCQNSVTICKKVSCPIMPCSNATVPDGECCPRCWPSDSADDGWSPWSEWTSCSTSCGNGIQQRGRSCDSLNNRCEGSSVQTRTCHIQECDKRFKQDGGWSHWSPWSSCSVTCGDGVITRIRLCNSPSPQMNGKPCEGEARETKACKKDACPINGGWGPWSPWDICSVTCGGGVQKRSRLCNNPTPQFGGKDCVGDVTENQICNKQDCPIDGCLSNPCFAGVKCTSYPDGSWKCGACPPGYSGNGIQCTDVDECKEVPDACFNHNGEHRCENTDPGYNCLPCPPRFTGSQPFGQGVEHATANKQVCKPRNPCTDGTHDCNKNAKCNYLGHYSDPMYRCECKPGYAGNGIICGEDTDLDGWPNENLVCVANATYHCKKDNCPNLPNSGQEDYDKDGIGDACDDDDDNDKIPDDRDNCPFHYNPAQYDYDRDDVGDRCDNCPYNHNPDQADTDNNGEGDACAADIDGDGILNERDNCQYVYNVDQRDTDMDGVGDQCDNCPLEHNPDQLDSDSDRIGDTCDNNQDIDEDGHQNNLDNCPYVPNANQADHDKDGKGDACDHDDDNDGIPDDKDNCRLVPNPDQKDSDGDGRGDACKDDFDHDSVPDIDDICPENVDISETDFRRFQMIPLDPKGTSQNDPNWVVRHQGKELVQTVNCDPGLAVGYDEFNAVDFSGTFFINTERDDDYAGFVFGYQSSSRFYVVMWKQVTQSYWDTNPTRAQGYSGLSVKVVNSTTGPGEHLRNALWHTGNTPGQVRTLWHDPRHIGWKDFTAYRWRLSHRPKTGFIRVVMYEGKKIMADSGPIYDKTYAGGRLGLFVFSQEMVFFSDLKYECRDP
Type: cell-based
Protocol: As referred to herein, the TSP1 inhibitory activity refers to the activity to inhibit one or more effects of TSP1, including angiostatic effect. The TSP1 inhibitory activity is measured by a cell adhesion inhibition assay using human TSP1 and vascular endothelial cells as described hereinbelow in the Examples section. In this assay, when the 50% inhibitory concentration (IC5O) of a test substance is 200 nM or less, the test substance is determined to have TSP1 inhibitory activity.
(Test Example 1) Cell Adhesion Inhibition Assay
I. Materials and Reagents
96 well Non-treated White with clear bottom (Coster, 3632)
BrightMax adhesive sealing films (EXCEL Scientific, WT50)
Proteosave®SS 15 mL (Sumitomo Bakelite, MS-52150)
Thrombospondin human platelet (Calbiochem, 605225)
EGM-2 MV (Lonza, CC-3202): for HUVEC passaging
Collagen coated dish (IWAKI, 4020-010): for HUVEC passaging
Lipidure®-BL802 (NOF Corporation), 5% solution
Albumin solution (35%) fraction V from Bovine (Sigma, A7979)
CellTiter-Glo (Promega, G7572)
Thrombospondin 1 vial (25 μg) was dissolved in TBS (+2 mM CaCl2; the same shall apply hereunder) to make a 200 μg/mL solution, which was diluted with TBS to a concentration of 10 μg/mL in Proteosave® 15 mL tube. The 10 μg/mL solution was dispensed into a 96 well plate at a volume of 50 μL/well (no reservoir was used since the protein easily adsorbs on it), and the plate was left to stand at 4° C. overnight.
Lipidure® was diluted 10-fold with TBS to make a 0.5% solution. After a buffer was discarded from the plate that had been coated at the step of <Plate coat> as described above, the 0.5% solution was dispensed into all wells to be used at a volume of 100 μL/well, and the plate was left to stand at room temperature for 1 hour.
A 0.2 μM solution of each sample was prepared using a dilution buffer (DMEM+0.5% BSA). 2 μL of the 0.2 μM solution was diluted with 500 μL, of dilution buffer to prepare a diluted sample. As a vehicle control, DMSO was diluted in the same way as the samples.
A blocking solution was discarded from the plate that had been treated at the step of <Plate blocking> as described above, and the plate was washed three times with 150 μL/well of TBS. The washing solution used for the third washing was completely sucked out by an aspirator, and the diluted sample was dispensed into the plate at a volume of 50 μL/well. Then, the plate was left to stand at room temperature for 15 to 30 minutes.
To maintain HUVECs, EGM2-MV and a collagen coated dish were used (the cells were ceased to be used after 10th or 1 lth passage since the cell proliferation rate declined at this stage). The cells were dispersed with 0.05% Trypsin/EDTA, harvested in DMEM/0.5% BSA, and centrifuged at 1000 rpm for 3 minutes. After removal of supernatant, the cells were washed once with a DMEM buffer. The cells were resuspended in a DMEM buffer, counted for cell number, and diluted to 10000 cells/50 μL. The cell suspension was dispensed at a volume of 50 μL/well into the plate into which the sample had been dispensed, mixed gently, and incubated at 37° C. for 2.5 hours.
After cell adhesion was confirmed, the culture medium was completely removed by an aspirator, and 100 μL/well of DMEM/0.5% BSA was gently dispensed. Then, DMEM/0.5% BSA was completely removed by an aspirator, and 50 μL/well of DMEM/0.5% BSA was dispensed. After a white seal was applied to the bottom of the plate, 50 μL/well of CellTiter-Glo® was dispensed, and the solution was stirred for 2 minutes and left to stand at room temperature for 8 minutes. […] was detected using EnVision Xcite Multilabel Reader (produced by Perkin Elmer).
On the basis of the measured fluorescence values, the IC50 values (nM) of the different macrocyclic polypeptides for inhibition of cell adhesion were calculated.
In the case of `CC[C@H](C)[C@@H]1NC(=O)[C@H](Cc2ccccc2)NC(=O)CSC[C@@H](C(N)=O)NC(=O)[C@H](C(C)C)NC(=O)[C@H](Cc2c[nH]c3ccccc23)NC(=O)[C@H](C(C)C)NC(=O)[C@H](C(C)C)NC(=O)[C@H](Cc2c[nH]c3ccccc23)NC(=O)[C@H](CC(N)=O)NC(=O)[C@H](CCCNC(=N)N)NC(=O)CNC(=O)[C@H](CO)NC1=O` [Compound 1] ({CH2CO}-FISGRNWVVWVC-NH2; thioether N-12), the IC50 is reported as 34 nM.
Work on `CC[C@H](C)[C@@H]1NC(=O)[C@H](Cc2ccccc2)NC(=O)CSC[C@@H](C(N)=O)NC(=O)[C@H](CCCNC(=N)N)NC(=O)[C@H](Cc2c[nH]c3ccccc23)NC(=O)[C@H](CCCNC(=N)N)NC(=O)[C@H](C(C)C)NC(=O)[C@H](Cc2c[nH]c3ccccc23)NC(=O)[C@H](CC(N)=O)NC(=O)[C@H](CCCNC(=N)N)NC(=O)CNC(=O)[C@H](CO)NC1=O` [Compound 5] yielded an IC50 of 33.4 nM.
In the case of `CC(C)[C@@H]1NC(=O)[C@H](Cc2c[nH]c3ccccc23)NC(=O)[C@H](CCCNC(=N)N)NC(=O)[C@H](C(C)C)NC(=O)[C@H](Cc2c[nH]c3ccccc23)NC(=O)[C@H](CC(N)=O)NC(=O)[C@H](CCCNC(=N)N)NC(=O)CNC(=O)[C@H](CO)NC(=O)[C@H](CCCNC(=N)N)NC(=O)[C@H](Cc2ccccc2)NC(=O)CSC[C@@H](C(N)=O)NC1=O` [Compound 8] ({CH2CO}-FRSGRNWVRWVC-NH2; thioether N-12), the IC50 is reported as 33.4 nM.
With `CC[C@H](C)[C@@H]1NC(=O)[C@H](Cc2c[nH]c3ccccc23)NC(=O)CSC[C@@H](C(N)=O)NC(=O)[C@H](C(C)C)NC(=O)[C@H](Cc2c[nH]c3ccccc23)NC(=O)[C@H](CCCCN)NC(=O)[C@H](C(C)C)NC(=O)[C@H](Cc2c[nH]c3ccccc23)NC(=O)[C@H](CC(N)=O)NC(=O)[C@H](CCCNC(=N)N)NC(=O)CNC(=O)[C@H](CO)NC1=O` [Compound 9] ({CH2CO}-WISGRNWVKWVC-NH2; thioether N-12) the IC50 was 27.3 nM.
`CC[C@H](C)[C@@H]1NC(=O)[C@H](Cc2c[nH]c3ccccc23)NC(=O)CSC[C@@H](C(N)=O)NC(=O)[C@H](C(C)C)NC(=O)[C@H](Cc2c[nH]c3ccccc23)NC(=O)[C@H](CCCNC(=N)N)NC(=O)[C@H](C(C)C)NC(=O)[C@H](Cc2c[nH]c3ccccc23)NC(=O)[C@H](CC(N)=O)NC(=O)[C@H](CCCNC(=N)N)NC(=O)CNC(=O)[C@H](CO)NC1=O` [Compound 11] ({CH2CO}-WISGRNWVRWVC-NH2; thioether N-12) gave an IC50 of 26 nM.
`CC[C@H](C)[C@@H]1NC(=O)[C@H](Cc2c[nH]c3ccccc23)NC(=O)CSC[C@@H](C(N)=O)NC(=O)[C@H](C(C)C)NC(=O)[C@H](Cc2c[nH]c3ccccc23)NC(=O)[C@H](CCCCN)NC(=O)[C@H](C(C)C)NC(=O)[C@H](Cc2c[nH]c3ccccc23)NC(=O)[C@H](CC(N)=O)NC(=O)[C@H](CCCCN)NC(=O)CNC(=O)[C@H](CO)NC1=O` [Compound 16] ({CH2CO}-WISGKNWVKWVC-NH2; thioether N-12) was tested, and the IC50 was 21 nM.
`CC[C@H](C)[C@@H]1NC(=O)[C@H](Cc2ccccc2)NC(=O)CSC[C@@H](C(N)=O)NC(=O)[C@H](C(C)C)NC(=O)[C@H](Cc2c[nH]c3ccccc23)NC(=O)[C@H](CCCCN)NC(=O)[C@H](C(C)C)NC(=O)[C@H](Cc2c[nH]c3ccccc23)NC(=O)[C@H]([C@@H](C)O)NC(=O)[C@H](CCCCN)NC(=O)CNC(=O)[C@H](CO)NC1=O` [Compound 18] ({CH2CO}-FISGKTWVKWVC-NH2; thioether N-12) showed an IC50 of 13 nM.
`CC[C@H](C)[C@@H]1NC(=O)[C@H](Cc2ccccc2)NC(=O)CSC[C@@H](C(N)=O)NC(=O)[C@H](C(C)C)NC(=O)[C@H](Cc2c[nH]c3ccccc23)NC(=O)[C@H](CCCCN)NC(=O)[C@H](CCSC)NC(=O)[C@H](Cc2c[nH]c3ccccc23)NC(=O)[C@H](CC(N)=O)NC(=O)[C@H](CCCCN)NC(=O)CNC(=O)[C@H](CO)NC1=O` [Compound 19] ({CH2CO}-FISGKNWMKWVC-NH2; thioether N-12) was tested, and the IC50 was 14 nM.
`CC[C@H](C)[C@@H]1NC(=O)[C@H](Cc2c[nH]c3ccccc23)NC(=O)CSC[C@@H](C(N)=O)NC(=O)[C@H](C(C)C)NC(=O)[C@H](Cc2c[nH]c3ccccc23)NC(=O)[C@H](CCCCN)NC(=O)[C@H](C(C)C)NC(=O)[C@H](Cc2c[nH]c3ccccc23)NC(=O)[C@H]([C@@H](C)O)NC(=O)[C@H](CCCCN)NC(=O)CNC(=O)[C@H](CO)NC1=O` [Compound 20] ({CH2CO}-WISGKTWVKWVC-NH2; thioether N-12) was tested, and the IC50 was 13 nM.
With `CC[C@H](C)[C@@H]1NC(=O)[C@H](Cc2c[nH]c3ccccc23)NC(=O)CSC[C@@H](C(N)=O)NC(=O)[C@H](C(C)C)NC(=O)[C@H](Cc2c[nH]c3ccccc23)NC(=O)[C@H](CCCCN)NC(=O)[C@H](C(C)C)NC(=O)[C@H](Cc2c[nH]c3ccccc23)NC(=O)[C@H]([C@@H](C)O)NC(=O)[C@H](CCCNC(=N)N)NC(=O)CNC(=O)[C@H](CO)NC1=O` [Compound 23] ({CH2CO}-WISGRTWVKWVC-NH2; thioether N-12) the IC50 was 15.6 nM.
Work on `CC[C@H](C)[C@@H]1NC(=O)[C@H](Cc2ccc3ccccc3c2)NC(=O)CSC[C@@H](C(N)=O)NC(=O)[C@H](C(C)C)NC(=O)[C@H](Cc2c[nH]c3ccccc23)NC(=O)[C@H](CCCCN)NC(=O)[C@H](C(C)C)NC(=O)[C@H](Cc2c[nH]c3ccccc23)NC(=O)[C@H](CC(N)=O)NC(=O)[C@H](CCCNC(=N)N)NC(=O)CNC(=O)[C@H](C)NC1=O` [Compound 30] ({CH2CO}-[2Nal]IAGRNWVKWVC-NH2; thioether N-12) yielded an IC50 of 16.7 nM.
`CC(C)[C@@H]1NC(=O)[C@H](Cc2c[nH]c3ccccc23)NC(=O)[C@H](CCCCN)NC(=O)[C@H](C(C)C)NC(=O)[C@H](Cc2c[nH]c3ccccc23)NC(=O)[C@H](CC(N)=O)NC(=O)[C@H](CCCNC(=N)N)NC(=O)CNC(=O)[C@H](CO)NC(=O)[C@H](Cc2c[nH]c3ccccc23)NC(=O)[C@H](Cc2ccc3ccccc3c2)NC(=O)CSC[C@@H](C(N)=O)NC1=O` [Compound 33] ({CH2CO}-[2Nal]WSGRNWVKWVC-NH2; thioether N-12) gave an IC50 of 20.7 nM.
Work on `CC(C)[C@@H]1NC(=O)[C@H](Cc2c[nH]c3ccccc23)NC(=O)[C@H](CCCCN)NC(=O)[C@H](C(C)C)NC(=O)[C@H](Cc2c[nH]c3ccccc23)NC(=O)[C@H](CC(N)=O)NC(=O)[C@H](CCCNC(=N)N)NC(=O)CNC(=O)[C@H](CO)NC(=O)[C@H](Cc2ccc3ccccc3c2)NC(=O)[C@H](Cc2ccc(Cl)c(Cl)c2)NC(=O)CSC[C@@H](C(N)=O)NC1=O` [Compound 34] ({CH2CO}-[Phe(3,4-Cl2)][2Nal]SGRNWVKWVC-NH2; thioether N-12) yielded an IC50 of 28.1 nM.
`CC[C@H](C)[C@@H]1NC(=O)[C@H](Cc2ccc3ccccc3c2)NC(=O)CSC[C@@H](C(N)=O)NC(=O)[C@H](C(C)C)NC(=O)[C@H](Cc2c[nH]c3ccccc23)NC(=O)[C@H](CCCCN)NC(=O)[C@H](C(C)C)NC(=O)[C@H](Cc2c[nH]c3cc(Cl)ccc23)NC(=O)[C@H](CC(N)=O)NC(=O)[C@H](CCCNC(=N)N)NC(=O)CNC(=O)[C@H](CO)NC1=O` [Compound 35] ({CH2CO}-[2Nal]ISGRN[Trp(6-Cl)]VKWVC-NH2; thioether N-12) showed an IC50 of 26 nM.
Molecule `CC[C@H](C)[C@@H]1NC(=O)[C@H](Cc2ccc3ccccc3c2)NC(=O)CSC[C@@H](C(N)=O)NC(=O)[C@H](C(C)C)NC(=O)[C@H](Cc2c[nH]c3cc(Cl)ccc23)NC(=O)[C@H](CCCCN)NC(=O)[C@H](C(C)C)NC(=O)[C@H](Cc2c[nH]c3ccccc23)NC(=O)[C@H](CC(N)=O)NC(=O)[C@H](CCCNC(=N)N)NC(=O)CNC(=O)[C@H](CO)NC1=O` [Compound 36] ({CH2CO}-[2Nal]ISGRNWVK[Trp(6-Cl)]VC-NH2; thioether N-12) has an IC50 of 17.2 nM.
